“And” between values parts separate entries of the source, which are not always exact repeats. Identical values can stand only once.
Legend:
[1] = system: mouse ear; test: Inhibition of resiniferatoxin (RTX)-induced edema in a mouse ear model; type: in vivo; conditions: for ED50 for inhibition of RTX-induced edema: dose response curve
Method: A. Inhibition of Capsaicin-Induced Inflammation (Edema) of the Mouse Ear. Induction of mouse ear edema was based on known methods. Inoue, H., Nagata, N., and Koshihara, Y. (1993). Profile of capsaicin-induced mouse ear oedema as neurogenic inflammatory model: comparison with arachidonic acid-induced ear oedema. Br. J. Pharm 110:1614-20. […] CAP alone (250 μg/ear) or in combination with various dilutions of test compound are applied to both sides of the left ears (5 mice per treatment group) and acetone is applied to all right ears. After a 30 minute incubation, the mice are sacrificed, the ears removed, and bores taken and weighed. Edema is measured by subtracting the weight of the right ear (acetone control) from the weight of the left ear (treated).
B. Inhibition of Resiniferatoxin (RTX)-induced edema in a mouse ear model. Topsentin was also tested for its inhibitory activity against inflammation induced by the neurogenic inflammation producing compound, resiniferatoxin (RTX). Using a mouse ear model, the experimental procedure is substantially the same as that described for the capsaicin-induced inflammation assay (see section A of this Example, above).

[2] = system: mouse ear; test: Inhibition of capsaicin-induced inflammation (edema) of the mouse ear; type: in vivo; conditions: for potency in inhibiting neurogenic inflammation compared with capsazepine: capsaicin-induced edema in mouse ears
From the text: The assay employing mice (e.g., administration to the ear of the mouse) is routinely used by those skilled in the art and is accepted as indicative of anti-inflammatory activity in humans. This assay is described below.
A. Inhibition of Capsaicin-Induced Inflammation (Edema) of the Mouse Ear. Induction of mouse ear edema was based on known methods. Inoue, H., Nagata, N., and Koshihara, Y. (1993). Profile of capsaicin-induced mouse ear oedema as neurogenic inflammatory model: comparison with arachidonic acid-induced ear oedema. Br. J. Pharm 110:1614-20. Compounds to be tested for anti-neurogenic inflammatory activity are topically applied in acetone to the ears of mice in a solution that includes the edema-causing irritant, capsaicin (CAP). CAP alone (250 μg/ear) or in combination with various dilutions of test compound are applied to both sides of the left ears (5 mice per treatment group) and acetone is applied to all right ears. After a 30 minute incubation, the mice are sacrificed, the ears removed, and bores taken and weighed. Edema is measured by subtracting the weight of the right ear (acetone control) from the weight of the left ear (treated). Results are recorded as % decrease (inhibition) or % increase (potentiation) in edema relative to the control group edema.

[3] = Mus musculus, topical, 3.12 μg/ear, read-out: % Inh. of Edema
[4] = Mus musculus, topical, 6.25 μg/ear, read-out: % Inh. of Edema
[5] = Mus musculus, topical, 12.5 μg/ear, read-out: % Inh. of Edema
[6] = Mus musculus, topical, 25 μg/ear, read-out: % Inh. of Edema
[7] = Mus musculus, topical, 50 μg/ear, read-out: % Inh. of Edema
[8] = 3.12 μg/ear, listed as hamacanthin b
[9] = 50 μg/ear, listed as hamacanthin b

| SMILES | Mean difference ([1]; 3.12 μg/ear) [mg] | Mean difference ([1]; 6.25 μg/ear) [mg] | Mean difference ([1]; 12.5 μg/ear) [mg] | Mean difference ([1]; 25 μg/ear) [mg] | inhibition of RTX-induced edema in certain animals ([1]; 50 μg on the ear) [%] | Mean difference ([1]; 50 μg/ear) [mg] | inhibition in vivo at 25 µg/ear [1, 6] [%] | inhibition in vivo at 50 µg/ear [1, 7] [%] | ED50 for inhibition of RTX-induced edema [1] | also measured |
| --- | --- | --- | --- | --- | --- | --- | --- | --- | --- | --- |
| NCC(c1c[nH]c2cc(Br)ccc12)c1c[nH]c2cc(Br)ccc12 [2,2-bis(6-bromoindol-3-yl)ethyl amine] | 11.9 | 13.2 | 5.8 | 2.1 | ~100 | 0.1 | 81.5 | ~99 | about 18.1 μg/ear | inhibition in vivo at 3.12 µg/ear [1, 3]: 6.8%; inhibition in vivo at 6.25 µg/ear [1, 4]: 18%; inhibition in vivo at 12.5 µg/ear [1, 5]: 86.8% |
| O=C(C1=NC(c2c[nH]c3cc(Br)ccc23)CN1)c1c[nH]c2ccccc12 (centres unmarked) [4,5-dihydro-6"-deoxybromotopsentin] |  |  |  |  |  | 3.3 |  | 87.1 |  |  |
| O=C(c1nc(-c2c[nH]c3cc(Br)ccc23)c[nH]1)c1c[nH]c2cc(O)ccc12 [Bromotopsentin] |  |  |  |  |  |  |  |  |  | % Inhibition of capsaicin-induced edema ([2]; 500 μg/ear): 79%; potency in inhibiting neurogenic inflammation compared with capsazepine [2]: greater potency in inhibiting neurogenic inflammation than capsazepine |
| Oc1cc2c(cc1O)CN(C(=S)NCCc1ccc(Cl)cc1)CCC2 [Capsazepine, reference compound] |  |  |  |  |  |  |  |  |  | % Inhibition of capsaicin-induced edema ([2]; 500 μg/ear): 33%; % Inhibition of capsaicin-induced edema ([2]; 1000 μg/ear): 52%; % Inhibition of capsaicin-induced edema ([2]; 1500 μg/ear): 76% |
| CC(c1c[nH]c(N)n1)c1ccc(O)c2[nH]cc(-c3cnc(-c4c[nH]c5cc(Br)ccc45)c(=O)[nH]3)c12 (centres unmarked) [Dragmacidin d, Dragmacidin-d] |  |  |  |  |  | 1.4 |  | 89.6 |  |  |
| O=C1NC[C@H](c2c[nH]c3cc(Br)ccc23)N=C1c1c[nH]c2cc(Br)ccc12 [Hamacanthin B] | 3.9 | 6.7 | 4.9 | 2.3 | ~100 | 0.4 |  |  | about 1.5 μg/ear | % Inh. of Edema ([1]; 3.12 μg/ear, listed as Hamacanthin b): 68%; % Inh. of Edema [1, 8]: 68.8%; Difference (mg), left minus right ear, individual animal [1, 8]: 4.4 mg and 6.9 mg and 1.5 mg and 1.2 mg and 5.3 mg; % Inh. of Edema ([1]; 6.25 μg/ear): 46.0%; Difference (mg), left minus right ear, individual animal ([1]; 6.25 μg/ear): 6.9 mg and 7.4 mg and 7.0 mg and 8.4 mg and 5.4 mg; % Inh. of Edema ([1]; 12.5 μg/ear): 86.8%; Difference (mg), left minus right ear, individual animal ([1]; 12.5 μg/ear): 4.6 mg and 4.1 mg and 6.1 mg and 8.3 mg and 1.4 mg; % Inh. of Edema ([1]; 25 μg/ear): 81.6%; Difference (mg), left minus right ear, individual animal ([1]; 25 μg/ear): 2.3 mg and 4.2 mg and 2.0 mg and 1.0 mg and 1.9 mg; % Inh. of Edema ([1]; 50 μg/ear, listed as Hamacanthin b): about 97%; % Inh. of Edema [1, 9]: 96.9%; Difference (mg), left minus right ear, individual animal [1, 9]: 0.2 mg and 0.0 mg and 1.4 mg and 0.1 mg |
| Brc1ccc2c(-c3c[nH]c(-c4c[nH]c5cc(Br)ccc45)n3)c[nH]c2c1 [Nortopsentin A] |  |  |  |  |  | -0.4 |  | 100 |  |  |
| Brc1ccc2c(-c3nc(-c4c[nH]c5ccccc45)c[nH]3)c[nH]c2c1 [Nortopsentin B] |  |  |  |  |  | 0.9 |  | 91.2 |  |  |
| Brc1ccc2c(-c3c[nH]c(-c4c[nH]c5ccccc45)n3)c[nH]c2c1 [Nortopsentin C] | 9.3 | 5.4 | 1.3 | 1.0 | ~100 | 0.2 | 90.2 | ~98 | about 8 μg/ear | inhibition in vivo at 3.12 µg/ear [1, 3]: 5.9%; inhibition in vivo at 6.25 µg/ear [1, 4]: 45%; inhibition in vivo at 12.5 µg/ear [1, 5]: 86.8% |
| O=C(c1nc(-c2c[nH]c3ccccc23)c[nH]1)c1c[nH]c2cc(O)ccc12 [Topsentin] |  |  |  | 8.3 |  | 2.6 | 41 | 82 | about 20 μg/ear | % Inhibition of capsaicin-induced edema ([2]; 100 μg/ear): 28%; Inflammation (mg) ± SEM ([2]; 100 μg/ear topical, capsaicin 250 μg/ear): 4.8 ± 1.0 mg; % Inhibition of capsaicin-induced edema ([2]; 100 μg/ear, listed as topsentin): more than 25%; % Inhibition of capsaicin-induced edema ([2]; 250 μg/ear): 66%; % Inhibition of capsaicin-induced edema ([2]; 500 μg/ear): 74%; % Inhibition of capsaicin-induced edema ([2]; 1000 μg/ear): 90%; potency in inhibiting neurogenic inflammation compared with capsazepine [2]: greater potency in inhibiting neurogenic inflammation than capsazepine; ED50 in inhibition of capsaicin-induced inflammation ([2]; dose-response curve, FIG. 1): about 200 μg/ear; percent inhibition of edema (up to) ([2]; final concentration of about 1000 μM): approximately 90%; Mean difference ([1]; 5 μg/ear): 12.3 mg; Mean difference ([1]; 10 μg/ear): 9.6 mg; inhibition of RTX-induced edema in certain animals ([1]; 100 μg on the ear): about 100%; Mean difference ([1]; 100 μg/ear): 1.3 mg; inhibition in vivo at 5 µg/ear ([1]; Mus musculus, topical, 5 μg/ear, read-out: % Inh. of Edema): ~12%; inhibition in vivo at 10 µg/ear ([1]; Mus musculus, topical, 10 μg/ear, read-out: % Inh. of Edema): 31%; inhibition in vivo at 100 µg/ear ([1]; Mus musculus, topical, 100 μg/ear, read-out: % Inh. of Edema): ~91% |
| CS(=O)(=O)Oc1ccc2c(C(=O)c3nc(-c4c[nH]c5cc(Br)ccc45)c[nH]3)c[nH]c2c1 [o-mesylbromotopsentin, bromotopsentin-O-mesylate] | 9.2 | 7.2 | 8.3 | 2.3 | 70 | 3 | 77.6 | 70.3 | about 17 μg/ear | inhibition in vivo at 3.12 µg/ear [1, 3]: 8.9%; inhibition in vivo at 6.25 µg/ear [1, 4]: 28%; inhibition in vivo at 12.5 µg/ear [1, 5]: 86.8% |

Source: patent US5955462A, “Anti-neurogenic inflammatory compounds and compositions and methods of use thereof” (Harbor Branch Oceanographic Institution, Inc., priority 1997, dated 1999)
